# Experimental data: patent US20250262170A1, “COMBINATIONS OF BETA 2-ADRENERGIC RECEPTOR AGONISTS AND BETA 3-ADRENERGIC RECEPTOR AGONISTS, AND MEDICAL USES THEREOF” (ATROGI AB, priority 2022, published 2025)
# Key:
# [1] = molecular target: T1, human β3-adrenergic receptor (Homo sapiens, UniProt P13945); assay: cAMP levels in CHO-K1 cells expressing the human β3-adrenergic receptor; format: cell-based; conditions: CHO-K1, 0.25 h, 15 min, read-out: Activity (intracellular cAMP compared to that of isoproterenol)
# T1 construct: expressed in transfected cells
# T1 sequence (P13945 whole entry): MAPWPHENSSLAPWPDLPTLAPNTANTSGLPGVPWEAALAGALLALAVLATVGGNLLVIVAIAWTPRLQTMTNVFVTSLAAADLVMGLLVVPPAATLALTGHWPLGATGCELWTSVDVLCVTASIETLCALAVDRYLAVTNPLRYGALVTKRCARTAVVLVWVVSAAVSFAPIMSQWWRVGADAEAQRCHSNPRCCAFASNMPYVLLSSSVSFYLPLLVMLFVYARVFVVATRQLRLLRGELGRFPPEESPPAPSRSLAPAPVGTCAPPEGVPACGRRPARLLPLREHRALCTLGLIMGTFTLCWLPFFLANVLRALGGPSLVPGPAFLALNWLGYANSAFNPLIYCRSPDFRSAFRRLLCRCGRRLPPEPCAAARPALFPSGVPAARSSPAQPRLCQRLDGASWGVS
# Protocol: CHO-K1 cells stably expressing the human β3-adrenergic receptors were serum-starved overnight and stimulated with an agonist, final concentration 1×10^−5 M, for 15 min in stimulation buffer (HBSS supplemented with 1% BSA, 5 mM HEPES and 1 mM IBMX, pH 7.4) The medium was then aspirated and to end the reaction, 100 μL of 95% EtOH was added to each well of the 24-well plate and cells were kept at −20° C. overnight. The next day EtOH was allowed to evaporate and 250 μL of lysis buffer (1% BSA, 5 mM HEPES and 0.3% Tween-20, pH 7.4) was added to each well. The plate was kept at −80° C. for 30 min and thawed in room temperature. Intracellular cAMP levels were detected using an alpha screen cAMP kit (6760635D from Perkin Elmer). The activity for each compound is compared to that of isoproterenol.
# β2-adrenergic receptor = molecular target: T2, β2-adrenergic receptor (Rattus norvegicus, UniProt P10608); assay: Glucose uptake in L6-myotubes in the presence of the selective β2-adrenergic receptor antagonist ICI-118551; format: cell-based; conditions: 3H-2-deoxyglucose, increasing ICI-118551
# T2 construct: endogenous in cells; host or cells: L6 myotubes differentiated from L6 myoblasts
# T2 sequence (P10608 whole entry): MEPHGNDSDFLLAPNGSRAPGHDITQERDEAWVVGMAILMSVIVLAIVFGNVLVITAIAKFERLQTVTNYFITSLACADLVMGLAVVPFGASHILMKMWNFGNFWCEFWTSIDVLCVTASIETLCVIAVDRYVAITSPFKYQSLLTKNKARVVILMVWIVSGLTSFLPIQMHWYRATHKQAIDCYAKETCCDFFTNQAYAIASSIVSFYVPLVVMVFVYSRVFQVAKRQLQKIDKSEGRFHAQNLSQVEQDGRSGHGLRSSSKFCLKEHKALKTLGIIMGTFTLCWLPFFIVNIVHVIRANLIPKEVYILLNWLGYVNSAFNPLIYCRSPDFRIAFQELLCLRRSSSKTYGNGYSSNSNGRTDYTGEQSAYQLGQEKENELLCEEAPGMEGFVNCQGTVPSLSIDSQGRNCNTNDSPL
# Protocol: L6-myoblasts were grown in Dulbecco's Modified Eagle's Medium (DMEM) containing 1 g/L glucose supplemented with 10% fetal bovine serum (FBS), 2 mM L-glutamine, 50 U/mL penicillin, […] streptomycin and 10 mM HEPES. Cells were plated at 1×10^5 cells per mL in 24-well plates. After reaching 90% confluence the cells were grown in medium containing 2% FBS for 7 days where upon cells differentiated into myotubes.
# The differentiated L6-myotubes were serum-starved overnight in medium containing 0.5% fatty-acid free BSA and stimulated with Compounds A and B at a final concentration of 1×10^−5 M in the presence of the selective β2-adrenergic receptor antagonist ICI-118551. After 1 h 40 min the cells were washed with warm, glucose free medium twice and another portion of agonist was added to the glucose free medium. After another 20 min of incubation the cells were exposed to 50 nM ^3H-2-deoxyglucose for 10 min before washed in ice cold glucose free medium three times and lysed in 400 μl/well 0.2 M NaOH for 1 h at 60° C. The cell lysate was mixed with 4 ml scintillation buffer (Emulsifier Safe, Perkin Elmer) and the radioactivity was detected in a […] (Tri-Carb 4810TR, Perkin Elmer).
SMILES,Emax at 10 µM [1] [%],glucose uptake promoted by the agonist in the presence of ICI-118551 (β2-adrenergic receptor)
"CCC[C@@H](C)NC[C@H](O)c1cccc(O)c1 [Compound 69, 3-((R)-1-hydroxy-2-(((R)-pentan-2-yl)amino)ethyl)-phenol]",> 75,
"CCCCNC[C@H](O)c1ccc(O)cc1 [Compound 70, (R)-4-(2-(butylamino)-1-hydroxyethyl)phenol]",50 to 75,
CC(C)(C)NC[C@H](O)c1cccc(F)c1 [Compound A],,inhibited in a dose-dependent manner
"CC(C)(C)NCC(O)c1cc(Cl)c(N)c(Cl)c1 (stereo not shown) [clenbuterol, reference compound]",,inhibited in a dose-dependent manner
